Experimental data from US5773430A, “Serine proteinase inhibitory activity by hydrophobic tetracycline” (Research Foundation of State University of New York, priority 1997, dated 1998).
Entries after “also recorded” stand apart in the source; their conditions may differ. Read-outs that look alike come from different tables or passages of the source.

Assays:
[1] = system: human neutrophils (live PMN's); assay: Neutrophil (PMN + 0.5 nM PMA)-mediated R22-ECM hydrolysis (3H-proline cpm released in 6 h); assay type: cell-based; conditions: for inhibition of ECM degradation, in words: 5-50 μM, Table 1 and FIG. 1; for activity at 5 µM / activity at 25 µM / activity at 50 µM: Homo sapiens, Neutrophil; for activity at 5 µM / activity at 25 µM / activity at 50 µM / ECM HYDROLYSIS (% CONTROL): control = hydrolysis in absence of any inhibitor normalized to 100%, 6 h at 37° C.
Text: The activity of various tetracyclines was investigated employing an in vitro assay of inflammatory tissue injury in which human neutrophils are allowed to degrade a biosynthetically prepared complete interstitial stromal extracellular matrix (ECM). A neutrophil is one type of leukocyte (polymorphonuclear leukocyte). […] E. J. Roemer, K. J. Stanton, and S. R. Simon, "In Vitro Assay Systems for Inflammatory Cell-Mediated Damage to Interstitial Extracellular Matrix," In Vitro Toxicol. 7,75-81 (1994); E. J. Roemer, K. J. Stanton, and S. R. Simon, "In Vitro Assay Systems for Cell Interactions With Interstitial Extracellular Matrix," In Vitro Toxicol. 7,209-224 (1994).
The serine proteinase inhibiting activity of tetracyclines was tested using an in vitro assay of inflammatory tissue injury in which human neutrophils (live PMN's) were allowed to degrade a biosynthetically prepared complete interstitial stromal extracellular matrix (ECM) produced by cultured R22 rat heart smooth muscle cells as described by Roemer et al. (E. J. Roemer, K. J. Stanton, and S. R. Simon, "In Vitro Assay Systems for Inflammatory Cell-Mediated Damage to Interstitial Extracellular Matrix," In Vitro Toxicol. 7,75-81 (1994); E. J. Roemer, K. J. Stanton, and S. R. Simon, "In Vitro Assay Systems for Cell Interactions With Interstitial Extracellular Matrix," In Vitro Toxicol. 7,209-224 (1994)). Ten different chemically modified tetracyclines (CMTs) designated CMT-1 through CMT-10 and doxycycline, at concentrations ranging from 5 μM to 50 μM, were added to the ECM simultaneously with a suspension of 2×10^6 viable human PMN/mL in Hank's balanced salts solution (HBSS). In these studies, the ECM was metabolically radiolabeled with ^3 H-proline, and counts solubilized after six hours of incubation were measured and compared with counts released after incubation with PMN alone.

[2] = biological target: T1, human leukocyte elastase (HLE) (Homo sapiens, UniProt P08246); assay: HLE amidolytic activity (methoxysuccinyl-Ala-Ala-Pro-Val-p-nitroanilide); assay type: biochemical
T1 sequence (P08246 30-267): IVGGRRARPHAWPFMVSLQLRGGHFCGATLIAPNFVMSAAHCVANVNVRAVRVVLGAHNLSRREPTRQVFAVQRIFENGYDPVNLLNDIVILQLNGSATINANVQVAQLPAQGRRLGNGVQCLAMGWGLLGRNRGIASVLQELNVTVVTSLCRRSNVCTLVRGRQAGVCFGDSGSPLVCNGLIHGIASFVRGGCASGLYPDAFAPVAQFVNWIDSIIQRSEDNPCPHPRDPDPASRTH
Text: This oligopeptide is generally assumed to occupy the first five subsites of the extended substrate binding domain in HLE.
To avoid time-dependent adsorption of HLE onto the wells of the 96-well microplates used in the amidolytic assays, the plates were pretreated with a solution of 0.2% bovine serum albumin. […] The […] concentration at which the Dixon plots intersect is a measure of Ki for the inhibitor.
The inhibitory activity of doxycycline towards amidolysis of methoxysuccinyl-Ala-Ala-Pro-Val-p-nitroanilide by HLE was also determined in the presence of 2% DMSO and no detergent, as described above for CMT-3.

leukocyte elastase = biological target: T2, leukocyte elastase (Homo sapiens, UniProt P08246); assay: Leukocyte elastase inhibitory activity; assay type: biochemical
T2 sequence (P08246 30-247): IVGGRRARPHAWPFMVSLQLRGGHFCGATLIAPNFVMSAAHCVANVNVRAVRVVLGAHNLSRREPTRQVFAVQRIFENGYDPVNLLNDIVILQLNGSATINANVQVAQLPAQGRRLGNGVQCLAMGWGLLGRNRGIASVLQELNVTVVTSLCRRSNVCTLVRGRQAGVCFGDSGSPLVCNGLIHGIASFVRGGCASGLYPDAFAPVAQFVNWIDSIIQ

MMP-8 = conditions: in vitro; read-out: K1, inhibition of MMP-8 activity in vitro; cited from earlier work
[3] = system: human neutrophils (live PMN's); conditions: cited from earlier work

Compound	potency as inhibitors of the amidolytic activity of HLE, in words [2]	ECM HYDROLYSIS (% CONTROL) ([1]; 5 μm)	ECM HYDROLYSIS (% CONTROL) ([1]; 25 μm)	ECM HYDROLYSIS (% CONTROL) ([1]; 50 μm)	also measured
CN(C)c1ccc(O)c2c1C[C@H]1C[C@H]3CC(O)=C(C(N)=O)C(=O)[C@@]3(O)C(O)=C1C2=O [CMT-10, 4-de(dimethylamino)minocycline]	–	–	–	–	inhibition of ECM degradation, in words [1]: showed some inhibition of ECM degradation; activity at 5 µM ([1]; 5 μm): 101%; activity at 25 µM ([1]; 25 μm): 85%; activity at 50 µM ([1]; 50 μm): 80%
CN(C)C1C(=O)C(C#N)=C(O)C2(O)C(=O)C3=C(O)c4c(O)cccc4C(C)(O)C3CC12 (centres unmarked) [CMT-2, tetracyclinonitrile]	–	–	–	–	activity at 5 µM ([1]; 5 μm): 91%; activity at 25 µM ([1]; 25 μm): 95%; activity at 50 µM ([1]; 50 μm): 100%
Cc1c2c(c(O)c3c(O)ccc(Cl)c13)C(=O)C1(O)C(O)=C(C(N)=O)C(=O)C(N(C)C)C1C2 (centres unmarked) [anhydrochlorotetracycline]	comparably low or no potency	–	–	–	–
CN(C)c1ccc(O)c2c1C[C@H]1C[C@H]3[C@H](N(C)C)C(O)=C(C(N)=O)C(=O)[C@@]3(O)C(O)=C1C2=O [minocycline]	–	–	–	–	leukocyte elastase inhibitory activity, in words (leukocyte elastase): do not exhibit substantial leukocyte elastase inhibitory activity
CC1(O)c2cccc(O)c2C(=O)C2=C(O)C3(O)C(=O)C(C(N)=O)=C(O)CC3CC21 (centres unmarked) [CMT-1, 4-de(dimethylamino)tetracycline]	–	93 % CONTROL	95 % CONTROL	90 % CONTROL	–
Cc1c2c(c(O)c3c(O)cccc13)C(=O)C1C(O)=C(C(N)=O)C(=O)CC1C2 (stereo not drawn) [CMT-9, 4-de(dimethylamino)-12α-deoxyanhydrotetracycline]	–	–	–	–	activity at 5 µM ([1]; 5 μm): 88%; activity at 25 µM ([1]; 25 μm): 215%; activity at 50 µM ([1]; 50 μm): 190%
CN(C)C1C(=O)C(C(N)=O)=C(O)C2(O)C(=O)C3=C(O)c4c(O)ccc(Cl)c4C(C)(O)C3CC12 (stereo not drawn) [epi-chlorotetracycline]	comparably low or no potency	–	–	–	–
CC1(O)c2cccc(O)c2C(=O)C2=C(O)C3(O)C(=O)C(C(N)=O)=C(O)C(O)C3CC21 (centres unmarked) [CMT-6, 4-hydroxy-4-de(dimethylamino)tetracycline]	–	109 % CONTROL	101 % CONTROL	97 % CONTROL	–
C[C@H]1c2cccc(O)c2C(O)=C2C(=O)[C@]3(O)C(O)=C(C(N)=O)C(=O)C[C@@H]3[C@@H](O)[C@@H]21 [CMT-8, 6-deoxy-5α-hydroxy-4-de(dimethylamino)tetracycline]	–	96 % CONTROL	82 % CONTROL	57 % CONTROL	inhibition of ECM degradation, in words [1]: showed some inhibition of ECM degradation
CC1(O)c2c(Cl)ccc(O)c2C(=O)C2=C(O)C3(O)C(=O)C(C(N)=O)=C(O)CC3CC21 (centres unmarked) [CMT-4, 7-chloro-4-de(dimethylamino)tetracycline]	–	90 % CONTROL	98 % CONTROL	130 % CONTROL	–
tetracycline pyrazole [CMT-5]	comparably low or no potency	78 % CONTROL	112 % CONTROL	102 % CONTROL	–
C[C@H]1c2cccc(O)c2C(=O)C2=C(O)[C@]3(O)C(=O)C(C(N)=O)=C(O)[C@@H](N(C)C)[C@@H]3[C@@H](O)[C@@H]21 [doxycycline]	only very weak inhibition; also recorded: only a very weak inhibitor of HLE	–	–	–	activity at 5 µM ([1]; 5 μm): 98%; activity at 25 µM ([1]; 25 μm): 92%; activity at 50 µM ([1]; 50 μm): 84%; Ki ([2]; 2% DMSO, no detergent, 100 μM through 300 μM substrate, Dixon plot, read-out: Ki for inhibition of amidolytic activity of HLE): ~300 µM; Ki ([2]; Dixon and Cornish-Bowden plots, FIGS. 3-5, read-out: apparent K1, inhibition of amidolysis): > 300 µM; leukocyte elastase inhibitory activity, in words (leukocyte elastase): do not exhibit substantial leukocyte elastase inhibitory activity; Ki (MMP-8): 25 to 50 µM
CN(C)[C@@H]1C(O)=C(C(N)=O)C(=O)[C@@]2(O)C(O)=C3C(=O)c4c(O)ccc(Cl)c4[C@@](C)(O)[C@H]3C[C@@H]12 [chlorotetracycline]	comparably low or no potency	–	–	–	–
CN(C)C1C(=O)C(C(N)=O)=C(O)C2(O)C(=O)C3=C(O)c4c(O)cccc4C(C)(O)C3C(O)C12 (centres unmarked) [oxytetracycline]	comparably low or no potency	–	–	–	–
CC1(O)c2cccc(O)c2C(=O)C2=C(O)C3C(=O)C(C(N)=O)=C(O)CC3CC21 (stereo not drawn) [CMT-7, 4-de(dimethylamino)-12α-deoxytetracycline]	–	97 % CONTROL	84 % CONTROL	100 % CONTROL	–
αhd 1-PI: the major endogenous inhibitor of human leukocyte elastase	–	–	–	–	neutrophil-mediated degradation of ECM, inhibition in words [3]: virtually completely inhibited
